The subject of series [1] is THP-1. Description: Anticlonogenic activity against human THP1 cells assessed as inhibition of colony formation at 50 nM measured after 13 days relative to control. Type of series: functional. The note with it: THP-1, 312 h.
In series [2] the test system is THP-1. Description: Anticlonogenic activity against human THP1 cells assessed as inhibition of colony formation at 500 nM measured after 13 days relative to control. Type of series: functional. The note with it: THP-1, 312 h.
Series [3] is described as follows: Cmax in CD-1 mouse at 5 mg/kg, iv administered as single dose. Type of series: ADME, organism-based. On the set-up: dose 5 mg/kg, route intravenous. The note with it: in vivo.
The nature of series [4]: AUC (0 to infinity) in CD-1 mouse at 5 mg/kg, iv administered as single dose. The class given is ADME, organism-based. More on the design: dose 5 mg/kg, time infinity, route intravenous. The following applies: in vivo.
Series [5] can be described thus: Clearance in CD-1 mouse at 5 mg/kg, iv administered as single dose. Type of series: ADME, organism-based. The following applies: in vivo.
The nature of series [6]: Volume of distribution at steady state in CD-1 mouse at 5 mg/kg, iv administered as single dose. Type of series: ADME, organism-based. The note with it: in vivo, read-out: Vdss.
Series [7] in a line: Half life in CD-1 mouse at 5 mg/kg, iv administered as single dose. The following applies: in vivo. Type of series: ADME, organism-based.
Series [8] in a line: Cmax in CD-1 mouse at 15 mg/kg, po administered as single dose. Type of series: ADME, organism-based. More on the design: dose 15 mg/kg, route oral. The following applies: in vivo.
The nature of series [9]: AUC (0 to infinity) in CD-1 mouse at 15 mg/kg, po administered as single dose. Type of series: ADME, organism-based. On the set-up: dose 15 mg/kg, time infinity, route oral. The note with it: in vivo.
The nature of series [10]: Tmax in CD-1 mouse at 15 mg/kg, po administered as single dose. Type of series: ADME, organism-based. The note with it: in vivo.
Series [11] in a line: Oral bioavailability in CD-1 mouse at 15 mg/kg administered as single dose. Type of series: ADME, organism-based. The note with it: in vivo.
Series [12] is described as follows: Antitumor activity against mouse APL blast injected in non-irradiated mouse assessed as increase in mouse survival at 15 mg/kg, po administered 5 days per week for 2 weeks starting after 10 days post-injection by Kaplan-Meier plot analysis relative to control. The class given is functional.
The nature of series [13]: Antitumor activity against mouse APL blast injected in non-irradiated mouse assessed as increase in mouse survival at 30 mg/kg, po administered 5 days per week for 2 weeks starting after 10 days post-injection by Kaplan-Meier plot analysis relative to control. The class given is functional.
Another series deals with Mus musculus. As to the kind of experiment: Antitumor activity against mouse APL blast injected in non-irradiated po dosed mouse assessed as increase in mouse survival administered 5 days per week for 2 weeks starting after 10 days post-injection by Kaplan-Meier plot analysis relative to control. The class given is functional, organism-based.
Series [14] in a line: Toxicity in non-irradiated mouse injected with APL blast cells assessed as effect on body weight at 15 and 30 mg/kg, po administered 5 days per week for 2 weeks starting after 10 days post-injection. The class given is organism-based. The note with it: in vivo.
Series [15] can be described thus: Toxicity in non-irradiated mouse injected with APL blast cells assessed as effect on body weight at 60 mg/kg, po administered 5 days per week for 2 weeks starting after 10 days post-injection measured after 1st week of treatment. Type of series: organism-based. The following applies: in vivo.
Series [16] is described as follows: Antitumor activity against human MLL-AF9 xenografted in sub-lethal irradiated C57BL6JCRL mouse assessed as increase in mouse survival at 15 mg/kg, po administered 5 days per week for 2 weeks starting after 10 days post-injection by Kaplan-Meier plot analysis relative to control. The class given is functional. On the technique in general: Xenograft models place foreign cells or tissue in a host animal.

Series [17] in a line: Antitumor activity against human MLL-AF9 xenografted in sub-lethal irradiated C57BL6JCRL mouse assessed as increase in mouse survival at 30 mg/kg, po administered 5 days per week for 2 weeks starting after 10 days post-injection by Kaplan-Meier plot analysis relative to control. Type of series: functional.
The nature of series [18]: Toxicity in sub-lethal irradiated C57BL6JCRL mouse xenografted with human MLL-AF9 cells assessed as effect on body weight at 15 to 30 mg/kg, po administered 5 days per week for 2 weeks starting after 10 days post-injection. Type of series: organism-based. The note with it: in vivo.
In series [19] the target is Lysine-specific histone demethylase 1A (Homo sapiens, UniProt O60341). As to the kind of experiment: Inhibition of recombinant human LSD1 expressed in Escherichia coli using biotinylated H3K4me as substrate by TR-FRET assay. For orientation: TR-FRET usually uses a lanthanide donor and a delayed reading to cut background.

As a reminder, the inhibition is the share of the control response that was lost under treatment. One may read the Cmax as the highest concentration seen after dosing. Usually AUC(0-inf) stands for total exposure, with the tail of the curve extrapolated. A high value points to more exposure. As usually defined, the clearance is the volume of plasma or blood freed of the substance per unit of time. Read a low clearance as inefficient removal. As a reminder, the half-life is how long it takes for the measured level to halve. Higher therefore signals slow loss. Usually Tmax stands for the time at which the peak concentration occurs. What is called bioavailability is the share of a dose that reaches the circulation, judged against a reference dose that is usually intravenous. Read a high bioavailability as much systemic uptake. The IC50 is the concentration that inhibits the measured activity by half.

`CCc1cn(CCOc2ccc(OC3CCNCC3)cc2)c(-c2cc3sccc3n2C)n1`: the inhibition at 0.05 µM in the series on THP-1 [1] amounted to 27.6%. In addition, the inhibition at 0.5 µM in the series on THP-1 [2] stood at 72.3%.
With `CCCc1cn(CCCc2ccc(OC3CCCNCC3)cc2)c(-c2cc3sccc3n2C)n1` (stereo not given), the inhibition at 0.05 µM in the series with THP-1 [1] is 46.6%. In addition, the inhibition at 0.5 µM with THP-1 [2] was 64.2%.
Regarding `Cn1c(-c2nc(C3CCC3)cn2CCCc2ccc(OC3CCNCC3)cc2)cc2sccc21`, the inhibition at 0.05 µM with THP-1 [1] is 38.8%. Besides, in the series on THP-1 [2], the inhibition at 0.5 µM stood at 72.3%. For the same compound, the Cmax in [3] amounted to 2540 nM; in [8], 320 nM. For the same compound, the AUC(0-inf) in series [4] was determined as 4.2 µM·h; in series [9], 2.03 µM·h. In series [5], this compound registered a clearance of 37.5 mL/min/kg. The Vd in series [6] came to 10.2 L/kg. The half-life in [7] is 6 h. For the same compound, the Tmax in series [10] was 0.417 h. In series [11], this compound had a bioavailability of 17%. The Activity in [12] was 20%; in series [13], 55%; in the series on Mus musculus it was “Dose-dependent effect”; in series [14], “Non-Toxic”; in series [15], “Toxic”; in series [16], 29%. Also, the Activity in series [17] is given as 70%; in [18] it was “Non-Toxic”.
For `Cn1c(NC(=O)c2ccccc2)cc2sccc21`, in [19], the IC50 was over 100 µM.
In the case of `Cn1c(-c2nnc(-c3ccccc3)o2)cc2sccc21`, the IC50 in [19] was over 100 µM.
Still for that read-out and setting: to `Cn1c(C(=O)Cc2ccccc2)cc2sccc21` belongs over 100 µM.
Take `Cn1c(-c2nc(C3CCC3)cn2CCOc2ccc(OC3CCNCC3)cc2)cc2sccc21`: the inhibition at 0.05 µM with THP-1 [1] was 33%. In the series on THP-1 [2], the inhibition at 0.5 µM came out at 73.3%.
On to `Cn1c(-c2nc(C3CCC3)cn2CCCc2ccc(OC3CCCNCC3)cc2)cc2sccc21` (stereo not given), for which, in the series with THP-1 [1], the inhibition at 0.05 µM was 40.9%. In addition, the inhibition at 0.5 µM in the series with THP-1 [2] was 74.2%.
As to `CCc1cn(CCCc2ccc(OC3CCNCC3)cc2)c(-c2cc3sccc3n2C)n1`, the inhibition at 0.05 µM in the series on THP-1 [1] worked out at 33.3%. Further, the inhibition at 0.5 µM in the series with THP-1 [2] came to 61.4%.
Take `Cn1c(-c2nnc(-c3ccccc3)[nH]2)cc2sccc21`: in series [19], the IC50 was over 100 µM.
In the case of `Cn1c(-c2ncc(-c3ccccc3)o2)cc2sccc21`, the IC50 in series [19] is over 100 µM.
Same read-out and setting: as for `Cn1c(-c2nc3ccccc3[nH]2)cc2sccc21`, the figure is over 100 µM.

The values above are taken from ChEMBL document CHEMBL4613290, “Discovery of Reversible Inhibitors of KDM1A Efficacious in Acute Myeloid Leukemia Models” (ACS Med Chem Lett, 2020).
